The record followed here is patent publication US7402696B2, “Benzene compounds” (Ajinomoto Co., Inc., priority 2004, dated 2008).

Where two headings read alike, the source gives them in different places.

In the test the target is T1, ACC (acetyl CoA carboxylase) purified from liver of male SD rat (Rattus norvegicus, UniProt P11497).
T1 construct: applied to a monomeric avidin sepharose column, and washed with buffer B. The ACC was eluted with buffer B containing 2 mM d-biotin; from tissue; host or cells: liver of male SD rat
Nature of the test: Measurement of ACC inhibition activity ([14C]-NaHCO3 incorporation). The format is biochemical. Conditions: ACC inhibition activity rate at 1 μM, read-out: ACC Inhibition (%). The procedure: A male SD rat was deprived of food for two days and then fed a high-sucrose diet (component) for two days. While anesthetized with ether, the descending vena cava was cut upon, the animal was bled, and the liver was rapidly recovered. In an ice-cooled buffer solution A (225 mM mannitol, 75 mM sucrose, 10 mM Tris-HCl (pH 7.5), 0.05 mM EDTA, 5 mM potassium citrate, 2.5 mM MgCl2, 10 mg/L pepstatin A, 10 mg/L leupeptin, 1 mM PMSF), the liver was homogenized with a polytone homogenizer. A quantity of buffer A nine times the weight of the liver was added, the mixture was centrifuged for 10 minutes at 1,000 g, the supernatant was recovered, and the supernatant was centrifuged for another 10 minutes at 17,000 g.
Ammonium sulfate was added to 35 percent saturation to the obtained supernatant. The mixture was stirred for 45 minutes and then centrifuged for 10 minutes at 17,000 g. Buffer solution B (100 mM Tris-HCl (pH 7.5), 500 mM NaCl, 1 mM EDTA, 0.1 mM DTT, 10 percent glycerol, 10 mg/L pepstatin A, 10 mg/L leupeptin, 0.5 mM PMSF) was added to the obtained precipitate and dissolved. The solution was then centrifuged for 20 minutes at 40,000 g. The supernatant was dialyzed overnight against buffer C (100 mM Tris-HCl (pH 7.5), 500 mM NaCl, 1 mM EDTA, 0.1 mM DTT, 5 percent glycerol).
The dialyzed supernatant was passed through a […], applied to a monomeric avidin sepharose column, and washed with buffer B. The ACC was eluted with buffer B containing 2 mM d-biotin.
(2 Measurement of ACC Inhibition Activity)
The compounds synthesized in the above-described embodiments were dissolved in DMSO and charged to glass vials. 250 μL of ACC-containing reaction solution (40 mM Tris-HCl (pH 7.5), 40 mM MgCl2, 40 mM sodium citrate, and 2 mM DTT) was added. The mixture was heated for 30 minutes at 37° C. in a thermostatic chamber and then cooled with ice. To reaction solution 1 was added 250 μL of reaction solution 2 containing [14C]—NaHCO3 (40 mM Tris-HCl (pH 7.5), 2 mM DTT, 8 mM ATP, 0.5 mM acetyl CoA) and the mixture was heated for 10 minutes at 37° C. 100 μL of 1N HCl was added to stop the reaction. Water in the reaction solution was removed with a centrifugal evaporator, a scintillator was added, the solid component was dissolved, and the 14C radioactivity was measured with a liquid scintillation counter. The ACC inhibition activity of each compound was calculated from the following equation and converted to the ACC inhibition activity rate (%) at 1 μM.
ACC inhibition rate (%)=(1−(a−c)/(b−c))×100 a. Radioactivity when test drug added b: Radioactivity when test drug not added c: Blank* *Reaction solution 1 to which 100 μL of 1N HCl was added before mixing reaction solution 1 and reaction solution 2

Where [1] appears, read: Table 2-III, Mode 3 acetylene/oxadiazole/thiazole compounds (numbers = x-III).
Where [2] appears, read: Table 4-IV, Mode 4 benzenediamine compounds (numbers = x-IV).
[3] abbreviates: Table 3-I, Mode 1 quinoline compounds (numbers = x-I).
The mark [4] stands for this setting: Table 4-A, further compounds of Modes 2 and 3.
The mark [5] stands for this setting: Table 3-II, Mode 2 benzimidazole compounds (numbers = x-II).

As a reminder, the inhibition is the relative decrease from the control value, in per cent. As for `CC(C)c1ccc(S(=O)(=O)NC(=O)C(Cc2ccccc2)NC(=O)Nc2ccc(-c3csc(-c4ccccc4)n3)cc2)cc1` (stereo not shown) [compound 130], under setting [1], the inhibition at 1 µM came out at 88%.
`Cc1ccccc1S(=O)(=O)NC(=O)[C@@H]1CCCC[C@@H]1NC(=O)c1ccc(N(C)CCC(C)C)c(NCc2ccccc2)c1` [Compound 146-IV]: the inhibition at 1 µM under setting [2] was found to be 72%.
Regarding `CCCCCC(=O)NS(=O)(=O)c1ccccc1NC(=O)c1ccc2nc(-c3cc(C(F)(F)F)cc(C(F)(F)F)c3)c(CCCl)cc2c1` [compound 103], the inhibition at 1 µM under setting [3] is 50%.
In the case of `CC(C)CCNc1ccc(-c2noc(-c3cccc(C(=O)NS(=O)(=O)c4ccccc4)c3)n2)cc1[N+](=O)[O-]` [compound 36], the inhibition at 1 µM under setting [2] was determined as 87%.
On the same count and under the same terms, as for `CC(C)CCN(C)c1ccc(-c2noc(-c3cccc(C(=O)NS(=O)(=O)c4cn(C)cn4)c3)n2)cc1NCc1ccc(OCCO)cc1` [Compound 137-IV], the figure is 79%.
As to `O=C(O)c1ccc(-c2csc(-c3ccc(C#Cc4cccc(C(F)(F)F)c4)cc3)n2)cc1` [compound 36], the inhibition at 1 µM under setting [1] stood at 54%.
`Cc1ccccc1S(=O)(=O)NC(=O)CC(NC(=O)c1ccc(N(C)CCC(C)C)c(NCc2ccccc2)c1)C1CCCCC1` (stereo not shown) [compound 82]: the inhibition at 1 µM under setting [2] worked out at 56%.
`O=C(NS(=O)(=O)c1cccc(-c2nc(-c3ccc(-c4csc(-c5ccccc5)n4)cc3)no2)c1)c1ccccc1` [Compound 136-III]: the inhibition at 1 µM under setting [4] was 94%.
For the compound `CC(C)CCN(C)c1ccc(-c2noc(-c3cccc(C(=O)NS(=O)(=O)c4ccccc4)c3)n2)cc1NC(=O)c1ccccc1` [compound 40], the inhibition at 1 µM under setting [2] stood at 87%.
As for `CCCCS(=O)(=O)NC(=O)CC(NC(=O)c1ccc2nc(-c3cc(C(F)(F)F)cc(C(F)(F)F)c3)ccc2c1)c1cccc2ccccc12` (stereo not shown) [compound 94], the inhibition at 1 µM under setting [3] is 50%.
In the case of `CC(C)CCN(C)c1ccc(C(=O)NC(CC(=O)NS(=O)(=O)c2ccccc2)C2CCCCC2)cc1NCc1ccccc1` (stereo not shown) [compound 54], the inhibition at 1 µM under setting [2] came out at 87%.
For the compound `CC(C)CCN(C)c1ccc(C(=O)NC(CC(=O)NS(=O)(=O)c2ccc(C(=O)O)cc2)C2CCCCC2)cc1NCc1ccccc1` (stereo not shown) [Compound 138-IV], the inhibition at 1 µM under setting [2] worked out at 63%.
Same read-out and setting: next, `CC(C)CCN(C)c1ccc(C(=O)NC(CC(=O)NS(=O)(=O)c2cn(C)cn2)C2CCCCC2)cc1NCC1CCCCC1` (stereo not shown) [Compound 161-IV]: 71%.
Take `CCCCS(=O)(=O)NC(=O)CC1(NC(=O)c2ccc3nc(-c4cc(C(F)(F)F)cc(C(F)(F)F)c4)ccc3c2)CCCCC1` [compound 54]: the inhibition at 1 µM under setting [3] turned out to be 45%.
As for `O=[N+]([O-])c1ccccc1S(=O)(=O)Nc1cccc(-c2csc(-c3ccccc3)n2)c1` [compound 82], the inhibition at 1 µM under setting [1] was 63%.
On to `Nc1ccc(S(=O)(=O)NC(=O)c2cccc(-c3nc(-c4ccc(-c5csc(-c6ccccc6)n5)cc4)no3)c2)cc1` [Compound 132-III], for which the inhibition at 1 µM under setting [4] came out at 96%.
Consider `Cc1ccccc1S(=O)(=O)NC(=O)c1cccc(-c2nc(-c3ccc(N(C)CCC(C)C)c(N4Cc5ccccc5C4=O)c3)no2)c1` [compound 127], for which, under setting [2], the inhibition at 1 µM was determined as 92%.
With `O=C(O)c1cccc(-c2nc(-c3ccc(C#Cc4cccc(C(F)(F)F)c4)cc3)no2)c1` [compound 27], under setting [1], the inhibition at 1 µM came to 56%.
Consider `CC(C)CCN(C)c1ccc(C(=O)NC(CC(=O)NS(=O)(=O)c2ccccc2)C2CCCCC2)cc1NCc1cccs1` (stereo not shown) [compound 91], for which, under setting [2], the inhibition at 1 µM worked out at 70%.
Same read-out and setting: as for `CSc1ccccc1CNc1cc(-c2noc(-c3cccc(C(=O)NS(=O)(=O)c4ccccc4)c3)n2)ccc1N(C)CCC(C)C` [compound 115], the figure is 100%; as for `CC(C)CCN(C)c1ccc(C(=O)NC(CC(=O)NS(=O)(=O)c2ccccc2)c2ccccc2)cc1NCc1ccccc1` (stereo not shown) [compound 112], 75%; as for `CC(C)CCN(C)c1ccc(C(=O)NC(CC(=O)NS(=O)(=O)c2ccccc2)C2CCCCC2)cc1N(C)Cc1ccccc1` (stereo not shown) [compound 93], 84%.
For the compound `CCCCS(=O)(=O)NC(=O)[C@@H]1C[C@@H]2C[C@@H](C2(C)C)[C@]1(C)NC(=O)c1ccc2nc(-c3cc(C(F)(F)F)cc(C(F)(F)F)c3)ccc2c1` [compound 58], the inhibition at 1 µM under setting [3] is 46%.
`CC(C)CCN(C)c1ccc(C(=O)NC(CC(=O)NS(=O)(=O)c2ccccc2)C2CCCCC2)cc1N(C)CC1CCCCC1` (stereo not shown) [compound 94]: the inhibition at 1 µM under setting [2] came out at 96%.
In the case of `Cc1ccccc1S(=O)(=O)NC(=O)CC(NC(=O)c1ccc(N(C)CCC(C)C)c(N(C)Cc2ccccc2)c1)C1CCCCC1` (stereo not shown) [compound 118], the inhibition at 1 µM under setting [2] came out at 93%.
Consider `O=C(O)c1ccc(-c2nc(-c3ccc(C#Cc4cccc(C(F)(F)F)c4)cc3)no2)cc1` [compound 28], for which the inhibition at 1 µM under setting [1] came out at 58%.
Regarding `CCCCCC(=O)NS(=O)(=O)c1ccccc1NC(=O)c1ccc2c(c1)nc(-c1cc(C(F)(F)F)cc(C(F)(F)F)c1)n2-c1ccc(C(F)(F)F)cc1` [compound 2], the inhibition at 1 µM under setting [5] came to 92%.
With `CC(C)CCN(C)c1ccc(-c2noc(-c3cccc(C(=O)NS(=O)(=O)c4ccccc4)c3)n2)cc1NCc1nccn1C` [compound 60], under setting [2], the inhibition at 1 µM came to 61%.
With `CC(C)CCN(C)c1ccc(-c2noc(-c3cccc(C(=O)NS(=O)(=O)c4ccccc4)c3)n2)cc1NC(=O)OCc1ccccc1` [compound 44], under setting [2], the inhibition at 1 µM was determined as 100%.
`O=C(O)c1ccccc1-c1nc(-c2ccc(-c3nc(-c4cc(C(F)(F)F)cc(C(F)(F)F)c4)cs3)cc2)cs1` [compound 1]: the inhibition at 1 µM under setting [1] stood at 62%.
For the compound `CCCCS(=O)(=O)NC(=O)c1ccccc1NC(=O)c1ccc2nc(-c3cc(C(F)(F)F)cc(C(F)(F)F)c3)ccc2c1` [compound 4], the inhibition at 1 µM under setting [3] was 78%.
On to `CC(C)CCN(C)c1ccc(C(=O)NC(CC(=O)NS(=O)(=O)c2ccccc2)c2ccccc2)cc1N(C)Cc1ccccc1` (stereo not shown) [compound 121], for which the inhibition at 1 µM under setting [2] was 90%.
Turning to `O=C(O)c1cccc(-c2noc(-c3ccc4c(c3)nc(-c3ccccc3)n4-c3ccc(C(F)(F)F)cc3)n2)c1` [compound 8], the inhibition at 1 µM under setting [5] was found to be 57%.
For `CCCCCC(=O)NS(=O)(=O)c1ccccc1NC(=O)c1ccc2nc(-c3cccc(SC(F)(F)F)c3)ccc2c1` [compound 109], under setting [3], the inhibition at 1 µM is 61%.
With `CC(C)CCN(C)c1ccc(-c2noc(-c3cccc(C(=O)NS(=O)(=O)c4ccccc4)c3)n2)cc1NCc1cccc(F)c1` [compound 101], the inhibition at 1 µM under setting [2] was 100%.
On to `Nc1ccccc1S(=O)(=O)NC(=O)c1cccc(-c2nc(-c3ccc(-c4csc(-c5ccccc5)n4)cc3)no2)c1` [Compound 137-III], for which, under setting [4], the inhibition at 1 µM is 96%.
For the compound `Cc1ccccc1S(=O)(=O)NC(=O)c1cccc(-c2nc(-c3ccc(N(C)CCC(C)C)c(N4COc5ccccc5C4)c3)no2)c1` [compound 128], under setting [2], the inhibition at 1 µM was 100%.
On to `CC(C)CCN(C)c1ccc(C(=O)NC(CC(=O)NS(=O)(=O)c2cn(C)cn2)C2CCCCC2)cc1NCCc1ccccc1` (stereo not shown) [Compound 162-IV], for which the inhibition at 1 µM under setting [2] amounted to 85%.
Turning to `O=C(/C=C/c1ccccc1)NS(=O)(=O)c1cccc(-c2nc(-c3ccc(-c4csc(-c5ccccc5)n4)cc3)no2)c1` [Compound 142-III], under setting [4], the inhibition at 1 µM came out at 100%.
`O=C(O)c1ccc(-c2nc(-c3ccc(-c4csc(-c5ccc(C(F)(F)F)cc5)n4)cc3)no2)cc1` [compound 51]: the inhibition at 1 µM under setting [1] amounted to 53%.
`CCC(CC)C(=O)Nc1cc(-c2noc(-c3cccc(C(=O)NS(=O)(=O)c4ccccc4)c3)n2)ccc1N(C)CCC(C)C` [compound 42]: the inhibition at 1 µM under setting [2] turned out to be 76%.
For the compound `O=C(O)c1ccccc1C(=O)Nc1ccc(C#Cc2cccc(C(F)(F)F)c2)cc1` [compound 10], under setting [1], the inhibition at 1 µM was 61%.
Same read-out and setting: next, `CC(C)c1ccc(S(=O)(=O)NC(=O)c2ccc3c(c2)CN(c2cccc(-c4csc(-c5ccccc5)n4)c2)C3)cc1` [compound 118]: 60%.
